In patent publication US20070128217A1 (priority 2003, published 2007):

What was measured:
[1] = system: rabbit serum obtained by immunizing a rabbit with the SARS-CoV strain Frankfurt 1; type: binding; set-up: Binding of a rabbit serum to linear peptides / Binding of a rabbit serum to looped peptides / Rabbit serum linear peptides / Rabbit serum looped peptides / Binding of a rabbit serum to linear peptides of protein N of SARS-CoV Urbani (Rabbit serum linear peptides) / Binding of a rabbit serum to looped/cyclic peptides of protein N of SARS-CoV Urbani (Rabbit serum looped peptides): unit not given here
[2] = system: control sera (pooled serum of ten healthy LUMC hospital workers; commercial negative donor pooled serum from the Dutch bloodbank); type: binding, human; set-up: Binding of Control serum LUMC to linear peptides / Binding of Control serum Blood-bank to linear peptides / Binding of Control serum LUMC to looped peptides / Binding of Control Serum Blood-Bank to Looped peptides / Binding of Control serum LUMC to linear peptides of the protein M of SARS-CoV Urbani / Binding of Control serum Blood-bank to linear peptides of the protein M of SARS-CoV Urbani / Binding of Control serum LUMC to looped peptides of the protein M of SARS-CoV Urbani / Binding of Control Serum Blood-Bank to Looped peptides of the protein M of SARS-CoV Urbani: unit not given here
[3] = system: antibodies in sera from SARS patients (sera 1a, 1b, 2, 6, 37, 62, London, SARS-yellow, SARS-green); type: binding, human; set-up: Binding of serum 6 to linear peptides of protein X1 of SARS-CoV Urbani / Binding of serum 37 to linear peptides of protein X1 of SARS-CoV Urbani / Binding of serum 6 to looped/cyclic peptide (PEPSCAN-ELISA) / Binding of serum 37 to looped/cyclic peptide (PEPSCAN-ELISA) / Binding of serum 37 to looped/cyclic peptides of protein X1 of SARS-CoV Urbani / Binding of serum 6 to linear peptides of protein X2 / Binding of serum 37 to linear peptides of protein X2 / Binding of serum 37 to looped/cyclic peptides of protein X2 of SARS-CoV Urbani / Binding of serum 6 to linear peptides of protein M of SARS-CoV Urbani / Binding of serum 37 to linear peptides of protein M of SARS-CoV Urbani / Binding of serum 6 to looped/cyclic peptides of protein M of SARS-CoV Urbani / Binding of serum 37 to looped/cyclic peptides of protein M of SARS-CoV Urbani / Binding of serum 6 to linear peptides of protein X3 of SARS-CoV Urbani / Binding of serum 37 to linear peptides of protein X3 of SARS-CoV Urbani / Binding of serum 37 to looped/cyclic peptides of protein X3 of SARS-CoV Urbani / Binding of serum 6 to linear peptides of protein X4 of SARS-CoV Urbani / Binding of serum 37 to linear peptides of protein X4 of SARS-CoV Urbani / Binding of serum 37 to looped/cyclic peptides of protein X4 of SARS-CoV Urbani / Binding of serum 6 to linear peptides of protein X5 of SARS-CoV Urbani / Binding of serum 37 to linear peptides of protein X5 of SARS-CoV Urbani / Binding of serum 37 to looped/cyclic peptides of protein X5 of SARS-CoV Urbani / Binding of serum 6 to linear peptides of protein N of SARS-CoV Urbani / Binding of serum 37 to linear peptides of protein N of SARS-CoV Urbani / Binding of serum 6 to linear peptide (PEPSCAN-ELISA) / Binding of serum 1a to looped/cyclic peptides of protein N of SARS-CoV Urbani / Binding of serum 1b to looped/cyclic peptides of protein N of SARS-CoV Urbani / Binding of serum 2 to looped/cyclic peptides of protein N of SARS-CoV Urbani / Binding of serum 6 to looped/cyclic peptides of protein N of SARS-CoV Urbani / Binding of serum 37 to looped/cyclic peptides of protein N of SARS-CoV Urbani / Binding of serum 62 to looped/cyclic peptides of protein N of SARS-CoV Urbani / Binding of serum London to looped/cyclic peptides of protein N of SARS-CoV Urbani / Binding of serum SARS-green to looped/cyclic peptides of protein N of SARS-CoV Urbani: unit not given here

Sequence: KFALTCTSTHFAFAC
- Rabbit serum linear peptides [1]: 0.5
- Rabbit serum looped peptides [1]: 0.6
- Binding of Control Serum Blood-Bank to Looped peptides [2]: 0.9
- Binding of Control serum Blood-bank to linear peptides [2]: 0.7
- Binding of Control serum LUMC to linear peptides [2]: 0.7
- Binding of Control serum LUMC to looped peptides [2]: 0.8
- Binding of serum 1a to linear peptides of protein X4 of SARS-CoV Urbani [3]: 0.8
- Binding of serum 1a to looped/cyclic peptides of protein X4 of SARS-CoV Urbani [3]: 1.0
- Binding of serum 1b to linear peptides of protein X4 of SARS-CoV Urbani [3]: 0.6
- Binding of serum 1b to looped/cyclic peptides of protein X4 of SARS-CoV Urbani [3]: 0.7
- Binding of serum 2 to linear peptides of protein X4 of SARS-CoV Urbani [3]: 0.5
- Binding of serum 2 to looped/cyclic peptides of protein X4 of SARS-CoV Urbani [3]: 0.9
- Binding of serum 6 to linear peptides of protein X4 of SARS-CoV Urbani [3]: 0.8
- Binding of serum 6 to looped/cyclic peptides of protein X4 of SARS-CoV Urbani [3]: 0.7
- Binding of serum 37 to linear peptides of protein X4 of SARS-CoV Urbani [3]: 0.8
- Binding of serum 37 to looped/cyclic peptides of protein X4 of SARS-CoV Urbani [3]: 0.7
- Binding of serum 62 to linear peptides of protein X4 of SARS-CoV Urbani [3]: 0.8
- Binding of serum 62 to looped/cyclic peptides of protein X4 of SARS-CoV Urbani [3]: 0.9
- Binding of serum London to linear peptides of protein X4 of SARS-CoV Urbani [3]: 0.8
- Binding of serum London to looped/cyclic peptides of protein X4 of SARS-CoV Urbani [3]: 0.4
- Binding of serum SARS-green to linear peptides of protein X4 of SARS-CoV Urbani [3]: 0.4
- Binding of serum SARS-green to looped/cyclic peptides of protein X4 of SARS-CoV Urbani [3]: 0.8
- Binding of serum SARS-yellow to linear peptides of protein X4 of SARS-CoV Urbani [3]: 0.6
- Binding of serum SARS-yellow to looped/cyclic peptides of protein X4 of SARS-CoV Urbani [3]: 0.8

Sequence: WLLWPVTLACFVLAA
- Rabbit serum linear peptides [1]: 0.3
- Rabbit serum looped peptides [1]: 0.3
- Binding of Control Serum Blood-Bank to Looped peptides of the protein M of SARS-CoV Urbani [2]: 0.5
- Binding of Control serum Blood-bank to linear peptides of the protein M of SARS-CoV Urbani [2]: 0.4
- Binding of Control serum LUMC to linear peptides of the protein M of SARS-CoV Urbani [2]: 0.2
- Binding of Control serum LUMC to looped peptides of the protein M of SARS-CoV Urbani [2]: 0.6
- Binding of serum 1a to linear peptides of protein M of SARS-CoV Urbani [3]: 0.6
- Binding of serum 1a to looped/cyclic peptides of protein M of SARS-CoV Urbani [3]: 0.7
- Binding of serum 1b to linear peptides of protein M of SARS-CoV Urbani [3]: 0.5
- Binding of serum 1b to looped/cyclic peptides of protein M of SARS-CoV Urbani [3]: 0.3
- Binding of serum 2 to linear peptides of protein M of SARS-CoV Urbani [3]: 0.5
- Binding of serum 2 to looped/cyclic peptides of protein M of SARS-CoV Urbani [3]: 0.7
- Binding of serum 6 to linear peptides of protein M of SARS-CoV Urbani [3]: 0.4
- Binding of serum 6 to looped/cyclic peptides of protein M of SARS-CoV Urbani [3]: 0.5
- Binding of serum 37 to linear peptides of protein M of SARS-CoV Urbani [3]: 0.6
- Binding of serum 37 to looped/cyclic peptides of protein M of SARS-CoV Urbani [3]: 0.7
- Binding of serum 62 to linear peptides of protein M of SARS-CoV Urbani [3]: 0.6
- Binding of serum 62 to looped/cyclic peptides of protein M of SARS-CoV Urbani [3]: 0.7
- Binding of serum London to linear peptides of protein M of SARS-CoV Urbani [3]: 0.3
- Binding of serum London to looped/cyclic peptides of protein M of SARS-CoV Urbani [3]: 0.2
- Binding of serum SARS-green to linear peptides of protein M of SARS-CoV Urbani [3]: 0.3
- Binding of serum SARS-green to looped/cyclic peptides of protein M of SARS-CoV Urbani [3]: 0.3
- Binding of serum SARS-yellow to linear peptides of protein M of SARS-CoV Urbani [3]: 0.0
- Binding of serum SARS-yellow to looped/cyclic peptides of protein M of SARS-CoV Urbani [3]: 0.7
